Patent US20250129430A1, “HIGH ATP-AFFINITY PROTEIN AS THERAPEUTIC TARGET FOR INTRACTABLE CANCER MOLECULAR SUBTYPES AND INHIBITOR THEREOF” (VeraVerse Co., Ltd., priority 2021, published 2025)
Structures can show the parent of a compound that is named as a salt.

Assays:
Experiment in all cases: Cell viability drug screen, 12-point dose-response AUC
Assay type in all cases: cell-based, human
SNU601 = SNU601 cells; 72 hours
How it was run: (§1)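 AUC comes from 12-point half-log dose–response curves, normalized to DMSO-treated cells and integrated trapezoidally, repeats averaged. Luminescent viability read after 72 h compound exposure at 37 °C; cells plated 5×10^3 per well 24 h before dosing.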

NCC20 = NCC20 cells; 72 hours
How it was run: as §1

OCUM1 = OCUM1 cells; 72 hours
How it was run: as §1

SNU638 = SNU638 cells; 72 hours
How it was run: as §1

SNU216 = SNU216 cells (non-SEM subtype); 72 hours
How it was run: (§2)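 Viability: luminescence (Glo kit, 15 min RT), normalized to 0.5% DMSO vehicle. Dosing: half-log, 12 concentrations, 72 h. Cells: 5×10^3/well, treated 24 h after plating. Value: trapezoidal AUC, mean of repeats.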

KATO3 = KATO3 cells; 72 hours
How it was run: as §1

YCC11 = YCC11 cells (SEM subtype); 72 hours
How it was run: as §1

NCC24 = NCC24 cells; 72 hours
How it was run: as §1

SNU668 = SNU668 cells (SEM subtype); 72 hours
How it was run: as §1

SNU1 = SNU1 cells; 72 hours
How it was run: as §1

SNU719 = SNU719 cells; 72 hours
How it was run: as §2

SNU1967 = SNU1967 cells; 72 hours
How it was run: as §1

MKN74 = MKN74 cells; 72 hours
How it was run: as §2

NCC59 = NCC59 cells; 72 hours
How it was run: as §1

Hs746T = Hs746T cells (SEM subtype); 72 hours
How it was run: as §1

YCC2 = YCC2 cells; 72 hours
How it was run: as §1

MKN45 = MKN45 cells (non-SEM subtype); 72 hours
How it was run: as §2

YCC3 = YCC3 cells; 72 hours
How it was run: as §1

AGS = AGS cells (non-SEM subtype); 72 hours
How it was run: as §2

SNU620 = SNU620 cells; 72 hours
How it was run: as §1

SNU16 = SNU16 cells; 72 hours
How it was run: as §1

NCC19 = NCC19 cells; 72 hours
How it was run: as §1

SNU1750 = SNU1750 cells (SEM subtype); 72 hours
How it was run: as §1

SK4 = SK4 cells (SEM subtype); 72 hours
How it was run: as §1

SNU484 = SNU484 cells (SEM subtype); 72 hours
How it was run: as §1

NCI_N87 = NCI_N87 cells; 72 hours
How it was run: as §1

MKN28 = MKN28 cells; 72 hours
How it was run: as §1

MKN1 = MKN1 cells; 72 hours
How it was run: as §1

FU97 = system: FU97; design: Average Area Under the Viability Curve (AUC), AUC norm value: scale not given here; conditions: FU97 cells; 72 hours
How it was run: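 Trapezoidal AUC of a 12-point, DMSO-normalized dose-response curve. Luminescent viability was measured after 72 h of exposure at 37° C to half-log serial dilutions (0.5% DMSO control), dosed 24 h after plating FU97 cells at 5×10^3 per well.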

Row | SMILES | Average Area Under the Viability Curve (AUC), AUC norm value (SNU601) | Average Area Under the Viability Curve (AUC), AUC norm value (NCC20) | Average Area Under the Viability Curve (AUC), AUC norm value (OCUM1) | Average Area Under the Viability Curve (AUC), AUC norm value (SNU638) | Average Area Under the Viability Curve (AUC), AUC norm value (SNU216) | Average Area Under the Viability Curve (AUC), AUC norm value (KATO3) | Average Area Under the Viability Curve (AUC), AUC norm value (YCC11) | Average Area Under the Viability Curve (AUC), AUC norm value (NCC24) | Average Area Under the Viability Curve (AUC), AUC norm value (SNU668) | Average Area Under the Viability Curve (AUC), AUC norm value (SNU1) | Average Area Under the Viability Curve (AUC), AUC norm value (SNU719) | Average Area Under the Viability Curve (AUC), AUC norm value (SNU1967) | Average Area Under the Viability Curve (AUC), AUC norm value (MKN74) | Average Area Under the Viability Curve (AUC), AUC norm value (NCC59) | Average Area Under the Viability Curve (AUC), AUC norm value (Hs746T) | Average Area Under the Viability Curve (AUC), AUC norm value (YCC2) | Average Area Under the Viability Curve (AUC), AUC norm value (MKN45) | Average Area Under the Viability Curve (AUC), AUC norm value (YCC3) | Average Area Under the Viability Curve (AUC), AUC norm value (AGS) | Average Area Under the Viability Curve (AUC), AUC norm value (SNU620) | also measured
1 | CC(C)C[C@H](NC(=O)[C@H](CCc1ccccc1)NC(=O)CN1CCOCC1)C(=O)N[C@@H](Cc1ccccc1)C(=O)N[C@@H](CC(C)C)C(=O)[C@@]1(C)CO1 [Carfilzomib (PR-171), Carfilzomib] | 1.489 | −2.002 | 1.245 | 0.1464 | 0 | 0.1004 | −0.7607 | −0.8995 | 1.899 | 0.1391 | 0.5178 | −0.5586 | −0.3162 | 0.8592 | −1.399 | 0.8534 | 0.5553 | 1.747 | −0.131 | −0.4242 | Average Area Under the Viability Curve (AUC), AUC norm value (SNU16): −1.3183; Average Area Under the Viability Curve (AUC), AUC norm value (NCC19): 1.562; Average Area Under the Viability Curve (AUC), AUC norm value (SNU1750): −0.9787; Average Area Under the Viability Curve (AUC), AUC norm value (SK4): −0.2415; Average Area Under the Viability Curve (AUC), AUC norm value (SNU484): −0.7602; Average Area Under the Viability Curve (AUC), AUC norm value (NCI_N87): 0.5098; Average Area Under the Viability Curve (AUC), AUC norm value (MKN28): −0.7065; Average Area Under the Viability Curve (AUC), AUC norm value (MKN1): 0.1771; Average Area Under the Viability Curve (AUC), AUC norm value (FU97): −0.1687
2 | CC[C@@H]1C(=O)N(C)c2cnc(Nc3ccc(C(=O)NC4CCN(C)CC4)cc3OC)nc2N1C1CCCC1 [BI 2536] | 0.0215 | 0.5722 | 2.226 | 0.1863 | 2.038 | 4.704 | −0.3817 | −0.8832 | −0.4211 | −1.064 | 3.291 | 0.0237 | −0.6584 | 3.556 | 1.951 | −0.1875 | 0.09661 | 3.315 | −1.22 | −1.078 | Average Area Under the Viability Curve (AUC), AUC norm value (SNU16): 0.02031; Average Area Under the Viability Curve (AUC), AUC norm value (NCC19): 3.475; Average Area Under the Viability Curve (AUC), AUC norm value (SNU1750): −0.8076; Average Area Under the Viability Curve (AUC), AUC norm value (SK4): −1.128; Average Area Under the Viability Curve (AUC), AUC norm value (SNU484): 0; Average Area Under the Viability Curve (AUC), AUC norm value (NCI_N87): −1.006; Average Area Under the Viability Curve (AUC), AUC norm value (MKN28): −1.69; Average Area Under the Viability Curve (AUC), AUC norm value (MKN1): −0.2123; Average Area Under the Viability Curve (AUC), AUC norm value (FU97): −0.4841
3 | COc1cccc2c1C(=O)c1c(O)c3c(c(O)c1C2=O)C[C@@](O)(C(C)=O)C[C@@H]3O[C@H]1C[C@H](N)[C@H](O)[C@H](C)O1 [Daunorubicin HCl (Daunomycin HCl), Daunorubicin HCl] | 1.207 | −0.7736 | 0.7066 | −1.229 | 0.4507 | 6.288 | −1.742 | −0.8801 | −0.9142 | −0.7605 | 3.416 | −1.481 | 1.215 | −0.5161 | 0.1484 | 1.127 | 2.949 | 2.699 | −1.2278 | −1.239 | Average Area Under the Viability Curve (AUC), AUC norm value (SNU16): −1.065; Average Area Under the Viability Curve (AUC), AUC norm value (NCC19): 0.9357; Average Area Under the Viability Curve (AUC), AUC norm value (SNU1750): −0.7795; Average Area Under the Viability Curve (AUC), AUC norm value (SK4): 0; Average Area Under the Viability Curve (AUC), AUC norm value (SNU484): −1.299; Average Area Under the Viability Curve (AUC), AUC norm value (NCI_N87): 4.5372; Average Area Under the Viability Curve (AUC), AUC norm value (MKN28): 2.146; Average Area Under the Viability Curve (AUC), AUC norm value (MKN1): −0.2877; Average Area Under the Viability Curve (AUC), AUC norm value (FU97): 0.3965
4 | CC(C)C[C@H](NC(=O)CNC(=O)c1cc(Cl)ccc1Cl)B1OC(=O)C(CC(=O)O)(CC(=O)O)O1 [MLN9708] | 0 | −1.527 | 2.097 | 0.0059 | 0.1416 | 0.559 | −1.824 | −0.9085 | 1.232 | 0.02493 | 1.304 | −1.556 | −0.4008 | −0.3472 | −1.547 | 0.3377 | 0.2581 | 2.717 | −0.6988 | −0.7036 | Average Area Under the Viability Curve (AUC), AUC norm value (SNU16): −2.259; Average Area Under the Viability Curve (AUC), AUC norm value (NCC19): −0.7913; Average Area Under the Viability Curve (AUC), AUC norm value (SNU1750): −2.161; Average Area Under the Viability Curve (AUC), AUC norm value (SK4): 0.4078; Average Area Under the Viability Curve (AUC), AUC norm value (SNU484): −1.069; Average Area Under the Viability Curve (AUC), AUC norm value (NCI_N87): 1.9321; Average Area Under the Viability Curve (AUC), AUC norm value (MKN28): 0.1368; Average Area Under the Viability Curve (AUC), AUC norm value (MKN1): 0.06734; Average Area Under the Viability Curve (AUC), AUC norm value (FU97): −1.568
